Data on one molecule can be found in patent US12102689B2, “Anti-CD22 antibody-maytansine conjugates and methods of use thereof” (R.P. Scherer Technologies, LLC, priority 2015, dated 2024).

Holding throughout (format): cell-based
One assay concerns MDR1+ WSU-DLCL2 cells. Briefly: In vitro cytotoxicity assay on MDR1-expressing cells. How it is done:
(§1) MDR1 (ABCB1) cDNA was obtained from Sino Biological and cloned into a pEF plasmid with a hygromycin selection marker. An AMAXA Nucleofector™ instrument was used to electroporate Ramos (ATCC CRL-1923) and WSU-DLCL2 (DSMZ ACC 575) cells according to the manufacturer's instructions. After selection with hygromycin (Invitrogen 10687010), the pools were enriched with paclitaxel treatment (25 nM for up to 10 days) to further select cells with functional MDR1. The resulting cells were maintained under hygromycin selection in RPMI (Gibco 21870-092) supplemented with 10% fetal bovine serum (FBS) and 1× GlutaMax (Gibco 35050-079).
(§2) Cell lines were plated in 96-well plates (Costar 3610) at a density of 5×10^4 cells/well in 100 μL of growth media and allowed to rest for 5 h. Serial dilution of test samples was performed in RPMI at 6× the final concentration and 20 μL was added to the cells. After incubation at 37° C. with 5% CO2 for 5 days, viability was measured using a Promega CellTiter 96® AQueous One Solution Cell Proliferation Assay (G3581) according to the manufacturer's instructions. GI50 curves were calculated in GraphPad Prism using the ADC's drug-to-antibody ratio (DAR) value to normalize the dose to the payload concentration.

Another assay concerns MDR1+ Ramos cells. Described as above. Conditions: MDR1+ Ramos vs wild-type. How it is done: as §1, §2
The next assay concerns Ramos cells. Put plainly: In vitro cytotoxicity (Cell Titer-Glo, 5 d). Particulars: Homo sapiens, 120 h. How it is done: (§3) The CD22-positive B-cell lymphoma cell lines, Ramos and WSU-DLCL2, were obtained from the ATCC and DSMZ cell banks, respectively. The cells were maintained in RPMI-1640 medium (Cellgro, Manassas, VA) supplemented with 10% fetal bovine serum (Invitrogen, Grand Island, NY) and Glutamax (Invitrogen). 24 h prior to plating, cells were passaged to ensure log-phase growth. On the day of plating, 5000 cells/well were seeded onto 96-well plates in 90 μL normal growth medium supplemented with 10 IU penicillin and 10 μg/mL streptomycin (Cellgro). Cells were treated at various concentrations with 10 μL of diluted analytes, and the plates were incubated at 37° C. in an atmosphere of 5% CO2. After 5 d, 100 μL/well of Cell Titer-Glo reagent (Promega, Madison, WI) was added, and luminescence was measured using a Molecular Devices SpectraMax M5 plate reader. GraphPad Prism software was used for data analysis.
On the technique in general: ATP-based viability assays read luminescence as a measure of living cells.

For the next assay, the system named is WSU-DLCL2 cells. Put plainly: In vitro cytotoxicity (Cell Titer-Glo, 5 d). Conditions: Homo sapiens, WSUDLCL2, 120 h. On the procedure: as §3

In general, IC50 refers to the point on the concentration scale where inhibition reaches its midpoint. `COc1cc2cc(c1Cl)N(C)C(=O)C[C@H](OC(=O)[C@H](C)N(C)C(C)=O)[C@]1(C)O[C@H]1[C@H](C)[C@@H]1C[C@@](O)(NC(=O)O1)[C@H](OC)/C=C/C=C(\C)C2` [free maytansine, maytansine]: the “potency on cotreatment with cyclosporin (MDR1 inhibitor)” value in the assay on MDR1+ WSU-DLCL2 cells (MDR1+ WSU-DLCL2 cells plus cyclosporin) is listed as “restored the original potency”. For the same molecule, the “fold less efficacious in MDR1-expressing cells” value with MDR1+ WSU-DLCL2 cells (MDR1+ WSU-DLCL2 vs wild-type) and in the assay on MDR1+ Ramos cells was around 10 fold throughout. For the same molecule, the figures for the IC50 with Ramos cells and with WSU-DLCL2 cells were 0.04 nM and 0.086 nM, respectively.
